From patent publication US20230021483A1, “[…] […] METHOD AND CLASSIFICATION OF PHARMACEUTICAL COMPONENTS BY USING TRANSCRIPTOMES” (National Institutes of Biomedical Innovation, Health and …, priority 2016, published 2023)

System: adjuvant-associated biological themes in LV, SP, LN
Details: LV, ID
Method in brief: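 Per-mouse whole-organ transcriptomes; genes with eij/ei(c)>2.0 tested for theme enrichment via TargetMine (GO, KEGG, Reactome, others), Fisher's exact test, Holm-Bonferroni correction. Themes shared by all three mice kept at p<0.05, using the smallest p. Score per adjuvant-associated term = Σ−log(p) of matching themes.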

## Nc1nc2c(ncn2[C@@H]2O[C@@H]3COP(=O)(O)O[C@H]4[C@@H](O)[C@H](n5cnc6c(N)ncnc65)O[C@@H]4COP(=O)(O)O[C@@H]2[C@@H]3O)c(=O)[nH]1 [cGAMP, Cyclic [G(2′,5′)pA(3′,5′)p]]
  GO annotation: Cytokine-cytokine receptor interaction (Term: cytokine): 5.57
  GO annotation: Cytokine-cytokine receptor interaction|Endocytosis (Term: cytokine): 24.6
  GO annotation: NF-kappa B signaling pathway (Term: NF-kappa B signaling pathway): 4.86
  GO annotation: TNF signaling pathway (Term: TNF signaling pathway): 27.6
  GO annotation: activation of immune response (Term: immune response): 12.6
  GO annotation: activation of innate immune response (Term: innate immune response): 16.9
  GO annotation: acute inflammatory response (Term: inflammatory response): 0
  GO annotation: adaptive immune response (Term: adaptive immune response): 0
  GO annotation: adaptive immune response based on somatic recombination of immune receptors built from immunoglobulin superfamily domains (Term: adaptive immune response): 3.78
  GO annotation: apoptotic process (Term: apoptosis): 4.46
  GO annotation: apoptotic signaling pathway (Term: apoptosis): 0
  GO annotation: cell chemotaxis (Term: chemotaxis): 4.4
  GO annotation: cell death (Term: cell death): 10.2
  GO annotation: cell migration (Term: migration): 0
  GO annotation: cellular response to cytokine stimulus (Term: cytokine): 32.9
  GO annotation: cellular response to interferon-alpha (Term: IFN alpha): 6.72
  GO annotation: cellular response to stress (Term: stress): 0
  GO annotation: chemokine production (Term: chemokine): 0
  GO annotation: chemokine-mediated signaling pathway (Term: chemokine): 0
  GO annotation: chemotaxis (Term: chemotaxis): 0
  GO annotation: cytokine biosynthetic process (Term: cytokine): 6.84
  GO annotation: cytokine metabolic process (Term: cytokine): 8.21
  GO annotation: cytokine production (Term: cytokine): 17.4
  GO annotation: cytokine secretion (Term: cytokine): 0
  GO annotation: cytokine-mediated signaling pathway (Term: cytokine): 16.4
  GO annotation: death (Term: cell death): 4.77
  GO annotation: defense response (Term: defense response): 62.7
  GO annotation: defense response to Gram-positive bacterium (Term: defense response): 0
  GO annotation: defense response to bacterium (Term: defense response): 8.38
  GO annotation: defense response to other organism (Term: defense response): 37
  GO annotation: defense response to protozoan (Term: defense response): 4.37
  GO annotation: defense response to virus (Term: defense response): 19.8
  GO annotation: granulocyte chemotaxis (Term: chemotaxis): 0
  GO annotation: granulocyte migration (Term: migration): 0
  GO annotation: immune response (Term: immune response): 42.2
  GO annotation: immune response-activating signal transduction (Term: immune response): 14.1
  GO annotation: immune response-regulating signaling pathway (Term: immune response): 17.6
  GO annotation: inflammatory response (Term: inflammatory response): 11.5
  GO annotation: innate immune response (Term: innate immune response): 31.4
  GO annotation: innate immune response-activating signal transduction (Term: innate immune response): 16.2
  GO annotation: interferon-alpha production (Term: IFN alpha): 3.79
  GO annotation: intrinsic apoptotic signaling pathway (Term: apoptosis): 0
  GO annotation: leukocyte chemotaxis (Term: chemotaxis): 0
  GO annotation: leukocyte migration (Term: migration): 0
  GO annotation: leukocyte migration involved in inflammatory response (Term: inflammatory response): 0
  GO annotation: lymphocyte chemotaxis (Term: chemotaxis): 0
  GO annotation: lymphocyte migration (Term: migration): 0
  GO annotation: myeloid leukocyte migration (Term: migration): 0
  GO annotation: negative regulation of apoptotic process (Term: apoptosis): 0
  GO annotation: negative regulation of cell death (Term: cell death): 0
  GO annotation: negative regulation of cytokine production (Term: cytokine): 3.21
  GO annotation: negative regulation of defense response (Term: defense response): 0
  GO annotation: negative regulation of immune response (Term: immune response): 0
  GO annotation: negative regulation of innate immune response (Term: innate immune response): 0
  GO annotation: negative regulation of programmed cell death (Term: cell death): 0
  GO annotation: neutrophil chemotaxis (Term: chemotaxis): 0
  GO annotation: neutrophil migration (Term: migration): 0
  GO annotation: positive regulation of adaptive immune response (Term: adaptive immune response): 0
  GO annotation: positive regulation of apoptotic process (Term: apoptosis): 0
  GO annotation: positive regulation of cell death (Term: cell death): 0
  GO annotation: positive regulation of cell migration (Term: migration): 0
  GO annotation: positive regulation of chemokine production (Term: chemokine): 0
  GO annotation: positive regulation of chemotaxis (Term: chemotaxis): 0
  GO annotation: positive regulation of cytokine biosynthetic process (Term: cytokine): 0
  GO annotation: positive regulation of cytokine production (Term: cytokine): 11.1
  GO annotation: positive regulation of defense response (Term: defense response): 24.7
  GO annotation: positive regulation of immune response (Term: immune response): 15.7
  GO annotation: positive regulation of inflammatory response (Term: inflammatory response): 0
  GO annotation: positive regulation of innate immune response (Term: innate immune response): 17.2
  GO annotation: positive regulation of interferon-alpha production (Term: IFN alpha): 4.81
  GO annotation: positive regulation of leukocyte chemotaxis (Term: chemotaxis): 0
  GO annotation: positive regulation of leukocyte migration (Term: migration): 0
  GO annotation: positive regulation of programmed cell death (Term: cell death): 0
  GO annotation: positive regulation of response to wounding (Term: wounding): 0
  GO annotation: positive regulation of tumor necrosis factor superfamily cytokine (Term: cytokine): 0
  GO annotation: production of molecular mediator of immune response (Term: immune response): 0
  GO annotation: programmed cell death (Term: cell death): 6.49
  GO annotation: regulation of adaptive immune response (Term: adaptive immune response): 0
  GO annotation: regulation of adaptive immune response based on somatic recombination of immune receptors built from immunoglobulin superfamily domains (Term: adaptive immune response): 0
  GO annotation: regulation of apoptotic process (Term: apoptosis): 4.63
  GO annotation: regulation of apoptotic signaling pathway (Term: apoptosis): 0
  GO annotation: regulation of cell death (Term: cell death): 3.82
  GO annotation: regulation of cell migration (Term: migration): 0
  GO annotation: regulation of chemokine production (Term: chemokine): 0
  GO annotation: regulation of chemotaxis (Term: chemotaxis): 0
  GO annotation: regulation of cytokine biosynthetic process (Term: cytokine): 0
  GO annotation: regulation of cytokine production (Term: cytokine): 19.1
  GO annotation: regulation of defense response (Term: defense response): 37.5
  GO annotation: regulation of defense response to virus (Term: defense response): 0
  GO annotation: regulation of defense response to virus by host (Term: defense response): 0
  GO annotation: regulation of immune response (Term: immune response): 20.7
  GO annotation: regulation of inflammatory response (Term: inflammatory response): 0
  GO annotation: regulation of innate immune response (Term: innate immune response): 24.8
  GO annotation: regulation of interferon-alpha production (Term: IFN alpha): 4.28
  GO annotation: regulation of intrinsic apoptotic signaling pathway (Term: apoptosis): 0
  GO annotation: regulation of leukocyte chemotaxis (Term: chemotaxis): 0
  GO annotation: regulation of leukocyte migration (Term: migration): 0
  GO annotation: regulation of programmed cell death (Term: cell death): 4.93
  GO annotation: regulation of response to stress (Term: stress): 25.3
  GO annotation: regulation of response to wounding (Term: wounding): 3.31
  GO annotation: regulation of tumor necrosis factor superfamily cytokine production (Term: cytokine): 0
  GO annotation: response to cytokine (Term: cytokine): 45.9
  GO annotation: response to interferon-alpha (Term: IFN alpha): 14.8
  GO annotation: response to stress (Term: stress): 44.6
  GO annotation: response to wounding (Term: wounding): 0
  GO annotation: taxis (Term: chemotaxis): 0
  GO annotation: tumor necrosis factor superfamily cytokine production (Term: cytokine): 0
  IFN beta: cellular response to interferon-beta: 17.6
  IFN beta: interferon-beta production: 5.22
  IFN beta: positive regulation of interferon-beta production: 9.2
  IFN beta: regulation of interferon-beta production: 5.76
  IFN beta: response to interferon-beta: 23.5
  IFN gamma: cellular response to interferon-gamma: 7.44
  IFN gamma: interferon-gamma production: 0
  IFN gamma: regulation of interferon-gamma production: 0
  IFN gamma: response to interferon-gamma: 10
  interleukin-6: interleukin-6 production: 0
  interleukin-6: positive regulation of interleukin-6 production: 0
  interleukin-6: regulation of interleukin-6 production: 0
  interleukin-12: interleukin-12 production: 0
  interleukin-12: positive regulation of interleukin-12 production: 0
  interleukin-12: regulation of interleukin-12 production: 0
